Reference: patent publication US20210113501A1, “METHOD OF ADMINISTERING BETA-HYDROXY-BETA-METHYLBUTYRATE (HMB)” (Metabolic Technologies, Inc., priority 2009, published 2021)

Assay: Study 2 blood chemistry
Assay type: in vivo, human
Details: for Aspartate Aminotransferase / Gamma-glutamyl: in U/L (unit assumed)
Protocol: Study 2 design. Study 2 was conducted similar to study 1 with the following modifications. In study 2, plasma levels of HMB were measured for 1440 min (24 h) and total urine collection was also performed for measurement of urinary HMB excretion during this period. After the 180 min blood sample, the subjects were allowed to leave the laboratory and were instructed to return to the laboratory for additional blood samples at 360, 720, and 1440 min after the ingestion of the supplement. As in study 1, each subject took each of the treatments with at least a one week washout period between treatments. Samples were again stored frozen at −70° C. for analysis of plasma and urinary HMB concentrations. Pre-ingestion, 180 min and 1440 min blood samples were again assayed for the same measurements already for study 1. Subjects were provided with a standardized lunch after the 180 min blood sampling and instructed to eat this at approximately 240 min post ingestion. Following the 720 min blood sample, subjects were instructed to eat a normal evening meal before 10 pm. Subjects reported back to the laboratory the following morning for the fasted 1440 min blood sample. A urine collection container was provided and subjects collected all urine produced during the experimental 24 h experimental period. The urine was stored refrigerated when not being collected. Urine volumes were measured and samples of the total urine collection were taken and stored frozen at −70° C. until analyzed for HMB.
The data were analyzed using a crossover design with Proc GLM in SAS. (45) For the timed sampling of plasma HMB a repeated measures polynomial model was used. The model included subject, order, and treatment main effects and time by treatment interaction where appropriate. For other parameters Proc GLM was also used with subject, order, and treatment main effects and the p values are reported for the treatment main effect. Statistical significance was determined for p<0.05 and a trend was determined for 0.05<p<0.10.

CC(C)(O)CC(=O)O [HMB-Acid Gel Sublingual, 3-hydroxy-3-methylbutyric acid]
A:G Ratio (After (24 h)): 1.8 ± 0.1
Alanine Aminotransferase (After (24 h)): 16.6 ± 1.8 IU/L
Albumin (After (24 h)): 4.2 ± 0.1 g/dL
Alkaline Phosphatase (After (24 h)): 62.8 ± 6.7 IU/L
Blood Urea Nitrogen (After (24 h)): 15.4 ± 1.1 mg/dL
CO2 (After (24 h)): 27.9 ± 0.4 mEq/L
Chloride (After (24 h)): 104.3 ± 0.9 mEq/L
Cholesterol Ratio (After (24 h)): 3.2 ± 0.2
Creatinine (After (24 h)): 1.0 ± 0.1 mg/dL
Direct Bilirubin (After (24 h)): 0.1 ± 0.04 mg/dL
Globulin (After (24 h)): 2.4 ± 0.1 g/dL
Glucose (After (24 h)): 80.8 ± 2.1 mg/dL
HDL (After (24 h)): 51.3 ± 2.8 mg/dL
Iron (After (24 h)): 65.0 ± 12.1 µg/dL
Iron Binding Capacity (After (24 h)): 385.0 ± 29.8 µg/dL
Iron Saturation (After (24 h)): 20.1 ± 4.2%
LDL (After (24 h)): 90.4 ± 6.8 mg/dL
Lactate Dehydrogenase (After (24 h)): 151.8 ± 5.2 IU/L
Phosphorus (After (24 h)): 4.6 ± 0.2 mg/dL
Potassium (After (24 h)): 4.9 ± 0.1 mEq/L
Protein (After (24 h)): 6.6 ± 0.2 g/dL
Sodium (After (24 h)): 142.1 ± 1.1 mEq/L
Total Bilirubin (After (24 h)): 0.5 ± 0.1 mg/dL
Total Cholesterol (After (24 h)): 163.3 ± 9.3 mg/dL
Triglycerides (After (24 h)): 107.6 ± 16.6 mg/dL
UIBC (After (24 h)): 312.0 ± 35.9 µg/dL
Uric Acid (After (24 h)): 4.7 ± 0.3 mg/dL
Aspartate Aminotransferase (After (24 h)): 24.8 ± 2.3
Gamma-glutamyl (After (24 h)): 13.9 ± 1.0
A:G Ratio (Before): 1.8 ± 0.1
Alanine Aminotransferase (Before): 15.3 ± 1.5 IU/L
Albumin (Before): 4.1 ± 0.1 g/dL
Alkaline Phosphatase (Before): 66.5 ± 7.3 IU/L
Blood Urea Nitrogen (Before): 15.3 ± 1.7 mg/dL
CO2 (Before): 25.3 ± 0.8 mEq/L
Chloride (Before): 102.1 ± 0.5 mEq/L
Cholesterol Ratio (Before): 3.1 ± 0.2
Creatinine (Before): 1.0 ± 0.1 mg/dL
Direct Bilirubin (Before): 0.1 ± 0.03 mg/dL
Globulin (Before): 2.3 ± 0.1 g/dL
Glucose (Before): 73.0 ± 1.8 mg/dL
HDL (Before): 52.3 ± 3.1 mg/dL
Iron (Before): 107.6 ± 13.7 µg/dL
Iron Binding Capacity (Before): 371.9 ± 31.4 µg/dL
Iron Saturation (Before): 30.1 ± 5.1%
LDL (Before): 91.3 ± 5.9 mg/dL
Lactate Dehydrogenase (Before): 163.8 ± 11.9 IU/L
Phosphorus (Before): 4.1 ± 0.1 mg/dL
Potassium (Before): 4.0 ± 0.1 mEq/L
Protein (Before): 6.5 ± 0.2 g/dL
Sodium (Before): 138.5 ± 0.6 mEq/L
Total Bilirubin (Before): 0.6 ± 0.1 mg/dL
Total Cholesterol (Before): 161.6 ± 9.4 mg/dL
Triglycerides (Before): 93.1 ± 10.6 mg/dL
UIBC (Before): 264.3 ± 33.3 µg/dL
Uric Acid (Before): 4.7 ± 0.3 mg/dL
A:G Ratio % Change (Before to After): −1.4%
Alanine Aminotransferase % Change (Before to After): 9.0%
Albumin % Change (Before to After): 2.7%
Alkaline Phosphatase % Change (Before to After): −5.6%
Aspartate Aminotransferase % Change (Before to After): 3.7%
Blood Urea Nitrogen % Change (Before to After): 0.8%
CO2 % Change (Before to After): 10.4%
Chloride % Change (Before to After): 2.1%
Cholesterol Ratio % Change (Before to After): 3.6%
Creatinine % Change (Before to After): 7.9%
Direct Bilirubin % Change (Before to After): −12.8%
Gamma-glutamyl % Change (Before to After): 0.0%
Globulin % Change (Before to After): 3.2%
Glucose % Change (Before to After): 10.6%
HDL % Change (Before to After): −1.9%
Iron % Change (Before to After): −39.6%
Iron Binding Capacity % Change (Before to After): 3.5%
Iron Saturation % Change (Before to After): −33.2%
LDL % Change (Before to After): −1.0%
Lactate Dehydrogenase % Change (Before to After): −7.3%
Phosphorus % Change (Before to After): 11.5%
Potassium % Change (Before to After): 21.7%
Protein % Change (Before to After): 2.9%
Sodium % Change (Before to After): 2.6%
Total Bilirubin % Change (Before to After): −13.3%
Total Cholesterol % Change (Before to After): 1.0%
Triglycerides % Change (Before to After): 15.6%
UIBC % Change (Before to After): 18.1%
Uric Acid % Change (Before to After): 0.8%
Aspartate Aminotransferase (Before): 23.9 ± 3.2
Gamma-glutamyl (Before): 13.9±1.2
